Reference: patent US9670227B2, “Thienopyrimidine derivatives, a process for their preparation and pharmaceutical compositions containing them” (LES LABORATOIRES SERVIER, priority 2013, dated 2017)
Read-outs that look alike come from different tables or passages of the source.

Assays:
Mcl-1 protein = Mcl-1 protein (UniProtKB primary accession number: Q07820) (Homo sapiens, UniProt Q07820); test: Inhibition of Mcl-1 by fluorescence polarisation, Method 1; type: binding; conditions: fluorescence polarisation test; Method 2 values are underlined in the patent (underlining not visible here); read-out: IC50 (M) Mcl-1 FP
Outline: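 FP readout of relative binding potency. Mcl-1 5 nM final, fluorescein-labelled ligand 1 nM final; buffer 10 mM HEPES, 150 mM NaCl, 0.05% Tween 20, pH 7.4; 11-pt dilution series, 5% DMSO final.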

[1] = test system: H929 multiple myeloma tumour line; test: In vitro cytotoxicity, Microculture Tetrazolium Assay; type: cell-based; conditions: H929 cells, 48 hours exposure, MTT, read-out: IC50 (μM) MTT H929
Description: The cytotoxicity studies were carried out on the H929 multiple myeloma tumour line.
The cells are distributed onto microplates and exposed to the test compounds for 48 hours.

Mcl-1 protein, sequence (Q07820 whole entry): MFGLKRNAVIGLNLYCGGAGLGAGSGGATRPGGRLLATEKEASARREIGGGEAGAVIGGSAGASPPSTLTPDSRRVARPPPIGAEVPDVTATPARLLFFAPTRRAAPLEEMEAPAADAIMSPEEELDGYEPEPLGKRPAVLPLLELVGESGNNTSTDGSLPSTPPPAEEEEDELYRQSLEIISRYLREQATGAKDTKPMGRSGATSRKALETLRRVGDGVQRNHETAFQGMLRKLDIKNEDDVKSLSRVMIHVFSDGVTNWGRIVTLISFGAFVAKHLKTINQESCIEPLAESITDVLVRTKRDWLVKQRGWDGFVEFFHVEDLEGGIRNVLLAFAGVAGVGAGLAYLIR

| IC50 (Mcl-1 protein) [M] | Compound | IC50 ([1]; Homo sapiens, NCI-H929, 48 h) [µM] | IC50 [1] [µM] |
| --- | --- | --- | --- |
| 1.5e-08 | COc1c(C)cccc1CC(Oc1ncnc2sc(-c3ccco3)c(-c3ccc(OCCN4CCN(C)CC4)c(Cl)c3C)c12)C(=O)O [Example 351, (2R)-2-{[(5Sa)-5-{3-chloro-2-methyl-4-[2-(4-methylpiperazin-1-yl)ethoxy]phenyl}-6-(furan-2-yl)thieno[2,3-d]pyrimidin-4-yl]oxy}-3-(2-methoxy-3-methylphenyl)propanoic acid] | 0.526 | – |
| 1.4e-08 | COc1c(F)cccc1CC(Oc1ncnc2sc(-c3ccco3)c(-c3ccc(OCCN4CCN(C)CC4)c(Cl)c3C)c12)C(=O)O [Example 352, (2R)-2-{[(5Sa)-5-{3-chloro-2-methyl-4-[2-(4-methylpiperazin-1-yl)ethoxy]phenyl}-6-(furan-2-yl)thieno[2,3-d]pyrimidin-4-yl]oxy}-3-(3-fluoro-2-methoxyphenyl)propanoic acid] | 0.91 | – |
| 1.1e-08 | Cc1ccccc1CC(Oc1ncnc2sc(-c3ccco3)c(-c3ccc(OCCN4CCN(C)CC4)c(Cl)c3C)c12)C(=O)O [Example 354, (2R)-2-{[(5Sa)-5-{3-chloro-2-methyl-4-[2-(4-methylpiperazin-1-yl)ethoxy]phenyl}-6-(furan-2-yl)thieno[2,3-d]pyrimidin-4-yl]oxy}-3-(2-methylphenyl)propanoic acid] | 0.544 | – |
| 5.5e-07 | Cc1c(-c2c(-c3ccco3)sc3ncnc(OC(Cc4ccccc4F)C(=O)O)c23)ccc(OCCN2CCN(C)CC2)c1Cl [Example 357, (2R)-2-{[(5Sa)-5-{3-chloro-2-methyl-4-[2-(4-methylpiperazin-1-yl)ethoxy]phenyl}-6-(furan-2-yl)thieno[2,3-d]pyrimidin-4-yl]oxy}-3-(2-fluorophenyl)propanoic acid] | – | 3.39 |
| 2.6e-08 | Cc1c(-c2c(-c3ccco3)sc3ncnc(OC(Cc4ccccc4SCC(F)(F)F)C(=O)O)c23)ccc(OCCN2CCN(C)CC2)c1Cl [Example 362, (2R)-2-{[(5Sa)-5-{3-chloro-2-methyl-4-[2-(4-methylpiperazin-1-yl)ethoxy]phenyl}-6-(furan-2-yl)thieno[2,3-d]pyrimidin-4-yl]oxy}-3-{2-[(2,2,2-trifluoroethyl)sulfanyl]phenyl}propanoic acid] | 1 | – |
| 5.1e-09 | Cc1c(-c2c(-c3ccc(Cl)o3)sc3ncnc(OC(Cc4ccccc4OCC4CCCO4)C(=O)O)c23)ccc(OCCN2CCN(C)CC2)c1Cl [Example 364, (2R)-2-{[6-(5-chlorofuran-2-yl)-(5Sa)-5-{3-chloro-2-methyl-4-[2-(4-methylpiperazin-1-yl)ethoxy]phenyl}thieno[2,3-d]pyrimidin-4-yl]oxy}-3-{2-[(2R)-tetrahydrofuran-2-ylmethoxy]phenyl}propanoic acid] | 0.052 | – |
| 5.9e-09 | Cc1c(-c2c(-c3ccc(Cl)o3)sc3ncnc(OC(Cc4ccccc4OCC(F)(F)F)C(=O)O)c23)ccc(OCCN2CCN(C)CC2)c1Cl [Example 365, (2R)-2-{[6-(5-chlorofuran-2-yl)-(5Sa)-5-{3-chloro-2-methyl-4-[2-(4-methylpiperazin-1-yl)ethoxy]phenyl}thieno[2,3-d]pyrimidin-4-yl]oxy}-3-[2-(2,2,2-trifluoroethoxy)phenyl]propanoic acid] | 0.026 | – |
| 8.6e-09 | Cc1c(-c2c(-c3ccc(Cl)o3)sc3ncnc(OC(Cc4ccccc4OCc4ccccn4)C(=O)O)c23)ccc(OCCN2CCN(C)CC2)c1Cl [Example 366, (2R)-2-{[6-(5-chlorofuran-2-yl)-(5Sa)-5-{3-chloro-2-methyl-4-[2-(4-methylpiperazin-1-yl)ethoxy]phenyl}thieno[2,3-d]pyrimidin-4-yl]oxy}-3-[2-(pyridin-2-ylmethoxy)phenyl]propanoic acid] | 0.346 | – |
| 3.2e-09 | Cc1c(-c2c(-c3ccc(Cl)o3)sc3ncnc(OC(Cc4ccccc4OCc4ccnc(C(F)(F)F)n4)C(=O)O)c23)ccc(OCCN2CCN(C)CC2)c1Cl [Example 367, (2R)-2-{[6-(5-chlorofuran-2-yl)-(5Sa)-5-{3-chloro-2-methyl-4-[2-(4-methylpiperazin-1-yl)ethoxy]phenyl}thieno[2,3-d]pyrimidin-4-yl]oxy}-3-(2-{[2-(trifluoromethyl)pyrimidin-4-yl]methoxy}phenyl)propanoic acid] | 0.015 | – |
| 1.4e-08 | Cc1c(-c2c(-c3ccc(Cl)o3)sc3ncnc(OC(Cc4ccccc4OCc4ccnc(N5CCOCC5)n4)C(=O)O)c23)ccc(OCCN2CCN(C)CC2)c1Cl [Example 368, (2R)-2-{[6-(5-chlorofuran-2-yl)-(5Sa)-5-{3-chloro-2-methyl-4-[2-(4-methylpiperazin-1-yl)ethoxy]phenyl}thieno[2,3-d]pyrimidin-4-yl]oxy}-3-(2-{[2-(morpholin-4-yl)pyrimidin-4-yl]methoxy}phenyl)propanoic acid] | 0.005 | – |
| 5.1e-09 | COc1nccc(COc2ccccc2CC(Oc2ncnc3sc(-c4ccc(Cl)o4)c(-c4ccc(OCCN5CCN(C)CC5)c(Cl)c4C)c23)C(=O)O)n1 [Example 369, (2R)-2-{[6-(5-chlorofuran-2-yl)-(5Sa)-5-{3-chloro-2-methyl-4-[2-(4-methylpiperazin-1-yl)ethoxy]phenyl}thieno[2,3-d]pyrimidin-4-yl]oxy}-3-{2-[(2-methoxypyrimidin-4-yl)methoxy]phenyl}propanoic acid] | 0.009 | – |
| 8.7e-09 | Cc1c(-c2c(-c3ccc(Cl)o3)sc3ncnc(OC(Cc4ccccc4OCc4ccncn4)C(=O)O)c23)ccc(OCCN2CCN(C)CC2)c1Cl [Example 370, (2R)-2-{[6-(5-chlorofuran-2-yl)-(5Sa)-5-{3-chloro-2-methyl-4-[2-(4-methylpiperazin-1-yl)ethoxy]phenyl}thieno[2,3-d]pyrimidin-4-yl]oxy}-3-[2-(pyrimidin-4-ylmethoxy)phenyl]propanoic acid] | 0.018 | – |
| 5.6e-09 | Cc1c(-c2c(-c3ccc(Cl)o3)sc3ncnc(OC(Cc4ccccc4OCc4ccnn4C)C(=O)O)c23)ccc(OCCN2CCN(C)CC2)c1Cl [Example 371, (2R)-2-{[6-(5-chlorofuran-2-yl)-(5Sa)-5-{3-chloro-2-methyl-4-[2-(4-methylpiperazin-1-yl)ethoxy]phenyl}thieno[2,3-d]pyrimidin-4-yl]oxy}-3-{2-[(1-methyl-1H-pyrazol-5-yl)methoxy]phenyl}propanoic acid] | 0.027 | – |
| 9.7e-09 | CCn1nccc1COc1ccccc1CC(Oc1ncnc2sc(-c3ccc(Cl)o3)c(-c3ccc(OCCN4CCN(C)CC4)c(Cl)c3C)c12)C(=O)O [Example 372, (2R)-2-{[6-(5-chlorofuran-2-yl)-(5Sa)-5-{3-chloro-2-methyl-4-[2-(4-methylpiperazin-1-yl)ethoxy]phenyl}thieno[2,3-d]pyrimidin-4-yl]oxy}-3-{2-[(1-ethyl-1H-pyrazol-5-yl)methoxy]phenyl}propanoic acid] | 0.018 | – |
| 4.6e-09 | Cc1c(-c2c(-c3ccc(Cl)o3)sc3ncnc(OC(Cc4ccccc4OCc4ccnn4CC(F)(F)F)C(=O)O)c23)ccc(OCCN2CCN(C)CC2)c1Cl [Example 373, (2R)-2-{[6-(5-chlorofuran-2-yl)-(5Sa)-5-{3-chloro-2-methyl-4-[2-(4-methylpiperazin-1-yl)ethoxy]phenyl}thieno[2,3-d]pyrimidin-4-yl]oxy}-3-(2-{[1-(2,2,2-trifluoroethyl)-1H-pyrazol-5-yl]methoxy}phenyl)propanoic acid] | 0.012 | – |
| 9.2e-09 | Cc1c(-c2c(-c3ccc(Cl)o3)sc3ncnc(OC(Cc4ccccc4OCc4cnccn4)C(=O)O)c23)ccc(OCCN2CCN(C)CC2)c1Cl [Example 374, (2R)-2-{[6-(5-chlorofuran-2-yl)-(5Sa)-5-{3-chloro-2-methyl-4-[2-(4-methylpiperazin-1-yl)ethoxy]phenyl}thieno[2,3-d]pyrimidin-4-yl]oxy}-3-[2-(pyrazin-2-ylmethoxy)phenyl]propanoic acid] | 0.038 | – |
| 5.6e-09 | Cc1c(-c2c(-c3ccc(Cl)o3)sc3ncnc(OC(Cc4ccccc4OCc4cncnc4)C(=O)O)c23)ccc(OCCN2CCN(C)CC2)c1Cl [Example 375, (2R)-2-{[6-(5-chlorofuran-2-yl)-(5Sa)-5-{3-chloro-2-methyl-4-[2-(4-methylpiperazin-1-yl)ethoxy]phenyl}thieno[2,3-d]pyrimidin-4-yl]oxy}-3-[2-(pyrimidin-5-ylmethoxy)phenyl]propanoic acid] | 0.081 | – |
| 2e-09 | Cc1c(-c2c(-c3ccc(Cl)o3)sc3ncnc(OC(Cc4ccccc4OCc4cocn4)C(=O)O)c23)ccc(OCCN2CCN(C)CC2)c1Cl [Example 376, (2R)-2-{[6-(5-chlorofuran-2-yl)-(5Sa)-5-{3-chloro-2-methyl-4-[2-(4-methylpiperazin-1-yl)ethoxy]phenyl}thieno[2,3-d]pyrimidin-4-yl]oxy}-3-[2-(1,3-oxazol-4-ylmethoxy)phenyl]propanoic acid] | 0.076 | – |
| 3.8e-09 | Cc1c(-c2c(-c3ccc(Cl)o3)sc3ncnc(OC(Cc4ccccc4OCC4CCCO4)C(=O)O)c23)ccc(OCCN2CCN(C)CC2)c1Cl [Example 377, (2R)-2-{[6-(5-chlorofuran-2-yl)-(5Sa)-5-{3-chloro-2-methyl-4-[2-(4-methylpiperazin-1-yl)ethoxy]phenyl}thieno[2,3-d]pyrimidin-4-yl]oxy}-3-{2-[(2S)-tetrahydrofuran-2-ylmethoxy]phenyl}propanoic acid] | – | 0.047 |

| Compound | IC50 (Mcl-1 protein) [M] | IC50 ([1]; Homo sapiens, NCI-H929, 48 h) [µM] | IC50 [1] [µM] |
| --- | --- | --- | --- |
| Cc1c(-c2c(-c3ccco3)sc3ncnc(OC(Cc4ccccc4NC(=O)OC(C)(C)C)C(=O)O)c23)ccc(OCCN2CCN(C)CC2)c1Cl [Example 358, (2R)-3-{2-[(tert-butoxycarbonyl)amino]phenyl}-2-{[(5Sa)-5-{3-chloro-2-methyl-4-[2-(4-methylpiperazin-1-yl)ethoxy]phenyl}-6-(furan-2-yl)thieno[2,3-d]pyrimidin-4-yl]oxy}propanoic acid] | 9.5e-09 | 1.61 | – |
